Results on 14 molecules are retold here after ChEMBL document CHEMBL5143585, “Discovery and characterization of benzyloxy piperidine based dopamine 4 receptor antagonists” (Bioorg Med Chem Lett, 2022).

Series [1] addresses T1, D(3) dopamine receptor (Homo sapiens, UniProt P35462). Put plainly: Displacement of [3H]N-methylspiperone from human D3 receptor expressed in HEK293 cell membrane at 10 uM by competitive inhibition based analysis. It is filed as cell membranes. Background: Loss of bound radioactivity is the signal in a displacement assay; it reports binding, not function.
Series [2] deals with T1, D(3) dopamine receptor. Nature of the series: Displacement of [3H]N-methylspiperone from human D3 receptor expressed in HEK293 cell membrane by competitive inhibition based analysis. It is filed as cell membranes.
The next series addresses D(1B) dopamine receptor (Homo sapiens, UniProt P21918). Put plainly: Displacement of [3H]-SCH23390 from human D5 receptor expressed in HEK293 cell membrane at 10 uM by competitive inhibition based analysis. It is filed as cell membranes.
The target of series [3] is D(2) dopamine receptor (Homo sapiens) (UniProt P14416). Put plainly: Displacement of [3H]N-methylspiperone from human D2 receptor expressed in HEK293 cell membrane at 10 uM by competitive inhibition based analysis. It is filed as cell membranes.
Another series concerns the target D(1A) dopamine receptor (Homo sapiens, UniProt P21728). Nature of the series: Displacement of [3H]-SCH23390 from human D1 receptor expressed in HEK293 cell membrane at 10 uM by competitive inhibition based analysis. It is filed as cell membranes.
The next series deals with T2, D(4) dopamine receptor (Homo sapiens, UniProt P21917).
T2 sequence (P21917 whole entry): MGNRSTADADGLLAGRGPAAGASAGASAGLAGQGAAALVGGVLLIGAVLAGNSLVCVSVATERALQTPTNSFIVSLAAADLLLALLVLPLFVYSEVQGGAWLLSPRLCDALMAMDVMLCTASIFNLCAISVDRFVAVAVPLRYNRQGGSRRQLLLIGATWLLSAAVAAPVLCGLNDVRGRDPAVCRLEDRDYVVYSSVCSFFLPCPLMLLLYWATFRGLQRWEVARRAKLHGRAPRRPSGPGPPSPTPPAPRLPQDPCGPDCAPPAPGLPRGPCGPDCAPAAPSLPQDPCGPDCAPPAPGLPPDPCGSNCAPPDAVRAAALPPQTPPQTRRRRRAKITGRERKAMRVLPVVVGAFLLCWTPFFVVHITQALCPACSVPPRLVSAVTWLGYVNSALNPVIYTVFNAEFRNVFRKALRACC
Nature of the series: Displacement of [3H]N-methylspiperone from human D4 receptor expressed in HEK293 cell membrane by competitive inhibition based analysis. It is filed as cell membranes.

The target of series [4] is T3, D(4) dopamine receptor (Homo sapiens) (UniProt P21917).
T3 sequence (whole entry): T2 sequence (P21917 whole entry)
Nature of the series: Displacement of [3H]N-methylspiperone from human D4 receptor expressed in HEK293 cell membrane at 10 uM by competitive inhibition based analysis. It is filed as cell membranes.

A short description of series [5]: Protein binding in human plasma assessed as unbound fraction. It is filed as ADME, cell-free.
Series [6] is described as follows: Protein binding in mouse plasma assessed as unbound fraction. It is filed as ADME, cell-free.

T1 sequence (P35462 whole entry): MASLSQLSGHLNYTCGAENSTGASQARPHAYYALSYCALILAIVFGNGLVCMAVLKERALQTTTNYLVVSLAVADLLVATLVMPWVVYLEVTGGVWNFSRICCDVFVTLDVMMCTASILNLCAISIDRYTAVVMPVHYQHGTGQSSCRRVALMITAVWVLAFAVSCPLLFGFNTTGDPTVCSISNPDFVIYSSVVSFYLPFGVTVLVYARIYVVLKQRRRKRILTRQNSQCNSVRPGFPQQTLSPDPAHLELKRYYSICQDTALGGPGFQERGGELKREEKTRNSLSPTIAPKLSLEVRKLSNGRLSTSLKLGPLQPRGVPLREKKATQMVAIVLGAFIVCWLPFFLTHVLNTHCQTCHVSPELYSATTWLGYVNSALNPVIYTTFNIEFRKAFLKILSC
D(2) dopamine receptor (Homo sapiens), sequence (P14416 whole entry): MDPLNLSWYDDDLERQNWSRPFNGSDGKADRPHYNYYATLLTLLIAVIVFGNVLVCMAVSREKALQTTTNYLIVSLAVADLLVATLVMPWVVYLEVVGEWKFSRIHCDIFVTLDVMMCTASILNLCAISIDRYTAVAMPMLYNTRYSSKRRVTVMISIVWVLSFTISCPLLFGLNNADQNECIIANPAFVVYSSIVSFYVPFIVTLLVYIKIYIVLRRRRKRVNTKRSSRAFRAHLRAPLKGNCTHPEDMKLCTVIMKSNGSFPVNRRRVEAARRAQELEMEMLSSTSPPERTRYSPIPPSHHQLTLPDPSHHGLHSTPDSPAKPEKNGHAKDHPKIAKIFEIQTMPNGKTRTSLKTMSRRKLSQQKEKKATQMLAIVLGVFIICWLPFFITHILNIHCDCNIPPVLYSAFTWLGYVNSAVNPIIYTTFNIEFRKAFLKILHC
D(1A) dopamine receptor, sequence (P21728 whole entry): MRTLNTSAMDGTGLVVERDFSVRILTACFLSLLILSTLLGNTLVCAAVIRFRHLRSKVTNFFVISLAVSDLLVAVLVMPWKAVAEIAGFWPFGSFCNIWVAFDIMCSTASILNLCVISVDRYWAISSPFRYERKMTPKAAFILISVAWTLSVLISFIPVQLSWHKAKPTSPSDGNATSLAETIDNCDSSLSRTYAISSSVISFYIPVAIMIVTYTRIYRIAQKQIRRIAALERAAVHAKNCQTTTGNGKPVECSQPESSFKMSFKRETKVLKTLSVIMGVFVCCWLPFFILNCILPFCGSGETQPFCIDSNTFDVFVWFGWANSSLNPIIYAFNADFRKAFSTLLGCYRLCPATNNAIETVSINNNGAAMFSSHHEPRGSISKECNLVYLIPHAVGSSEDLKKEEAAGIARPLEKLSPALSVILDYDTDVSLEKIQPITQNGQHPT
D(1B) dopamine receptor, sequence (P21918 whole entry): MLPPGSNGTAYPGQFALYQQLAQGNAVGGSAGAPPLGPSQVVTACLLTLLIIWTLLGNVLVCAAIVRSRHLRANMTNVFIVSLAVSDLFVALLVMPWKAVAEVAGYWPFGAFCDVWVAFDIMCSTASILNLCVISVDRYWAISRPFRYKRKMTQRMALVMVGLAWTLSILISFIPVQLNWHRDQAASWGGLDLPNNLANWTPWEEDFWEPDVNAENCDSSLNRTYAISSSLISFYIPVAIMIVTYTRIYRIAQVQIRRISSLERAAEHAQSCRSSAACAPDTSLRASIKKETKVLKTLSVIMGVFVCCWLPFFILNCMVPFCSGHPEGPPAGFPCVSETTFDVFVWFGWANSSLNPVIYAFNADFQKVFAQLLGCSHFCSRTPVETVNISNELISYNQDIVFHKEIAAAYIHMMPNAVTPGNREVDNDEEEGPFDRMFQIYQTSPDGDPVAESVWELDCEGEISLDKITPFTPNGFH

Usually inhibition stands for the drop in the measured response relative to a control, in per cent. One may read the Ki as the equilibrium dissociation constant of an inhibitor or competing ligand from its target. High values mean lower affinity, low ones higher affinity. A word on the IC50: it is the point on the concentration scale where inhibition reaches its midpoint. A high value points to weaker potency. On to `Cc1c(Cl)cccc1NC(=O)CN1CCC(OCc2ccc(Cl)c(F)c2)CC1`, for which the inhibition is 76.2% at D(3) dopamine receptor [1] (filed as antagonist), under 50% on D(1B) dopamine receptor, under 50% in series [3] and under 50% on D(1A) dopamine receptor. Moreover, the inhibition constant (Ki) at D(3) dopamine receptor [2] was determined as 2360 nM; on D(4) dopamine receptor, 441 nM. For the same molecule, the concentration for half-maximal inhibition (IC50) at D(4) dopamine receptor is 437 nM.

On to `COc1ccc(CO[C@H]2CCCN(Cc3cccc(C)c3)C2)cc1F`, for which the inhibition in series [4] (filed as antagonist) was 45.8%; at D(3) dopamine receptor [1], under 50%; on D(1B) dopamine receptor, under 50%; in [3] it was under 50%; at D(1A) dopamine receptor, under 50%.

On to `Cc1c(Cl)cccc1NC(=O)CN1CCC(OCc2cccc(C(F)(F)F)c2)CC1`, for which the inhibition was 84% on D(3) dopamine receptor [1] (filed as antagonist), under 50% on D(1B) dopamine receptor, under 50% in series [3] and under 50% on D(1A) dopamine receptor. Also, the Ki at D(3) dopamine receptor [2] was 2120 nM; on D(4) dopamine receptor, 1160 nM. Also, on D(4) dopamine receptor, the IC50 was 1150 nM.

Take `Cc1cccc(CO[C@H]2CCCN(Cc3cn4ccccc4n3)C2)n1`: the inhibition in series [4] was 22.5%; at D(3) dopamine receptor [1], under 50%; at D(1B) dopamine receptor it was under 50%; in series [3] it was under 50%; at D(1A) dopamine receptor, under 50%.

Consider `Cn1cnc2cc(CN3CCC(OCc4ccc(Cl)c(F)c4)CC3)ccc21`, for which the inhibition in series [4] (filed as antagonist) is 48%.

`Cc1ccccc1CO[C@H]1CCCN(Cc2ccc(Cl)c(Cl)c2)C1`: the inhibition in series [4] (filed as antagonist) is 43.9%; on D(3) dopamine receptor [1], under 50%; on D(1B) dopamine receptor it was under 50%; in [3], under 50%; at D(1A) dopamine receptor it was under 50%.

As for `Cc1ccccc1CN1CCC[C@H](OCc2cccc(F)c2)C1`, the inhibition in [4] was 29.2%; at D(3) dopamine receptor [1] it was under 50%; at D(1B) dopamine receptor it was under 50%; in [3], under 50%; on D(1A) dopamine receptor, under 50%.

`Fc1cccc(CO[C@H]2CCCN(Cc3ccc(Cl)cc3F)C2)c1`: the inhibition in series [4] (filed as antagonist) is 44.9%; at D(3) dopamine receptor [1] it was under 50%; at D(1B) dopamine receptor, under 50%; in series [3], under 50%; on D(1A) dopamine receptor, under 50%.

As for `Cc1ccc(CO[C@H]2CCCN(Cc3cccc(F)c3)C2)cc1`, the inhibition was 33.1% in series [4]; under 50% on D(3) dopamine receptor [1]; under 50% on D(1B) dopamine receptor; under 50% in series [3]; under 50% at D(1A) dopamine receptor.

In the case of `Cc1cccc(CO[C@H]2CCCN(Cc3ncc4ccccn34)C2)n1`, the inhibition was 18.9% in [4]; under 50% on D(3) dopamine receptor [1]; under 50% on D(1B) dopamine receptor; under 50% in series [3]; under 50% on D(1A) dopamine receptor.

As to `FC(F)(F)Oc1cccc(CO[C@H]2CCCN(Cc3ncc4ccccn34)C2)c1`, the inhibition in series [4] (filed as antagonist) is 40.4%; at D(3) dopamine receptor [1], under 50%; on D(1B) dopamine receptor, under 50%; in series [3], under 50%; at D(1A) dopamine receptor it was under 50%.

Take `Fc1cc(COC2CCN(Cc3ncc4ccccn34)CC2)ccc1Cl`: the values for the Fu in [5] and in [6] were 1% and 1.7%, respectively. The inhibition (at D(3) dopamine receptor [1]; on D(1B) dopamine receptor; in [3]; on D(1A) dopamine receptor) was under 50% in each case. Moreover, the IC50 at D(4) dopamine receptor was 158 nM. On D(4) dopamine receptor, this molecule displayed a Ki of 158 nM.

`Cc1ccccc1CO[C@H]1CCCN(Cc2ccc(Cl)cc2F)C1`: the inhibition in series [4] is -1.6%; at D(3) dopamine receptor [1] it was under 50%; on D(1B) dopamine receptor, under 50%; in series [3], under 50%; on D(1A) dopamine receptor, under 50%.

For `COc1ccc(CN2CCC[C@H](OCc3ccc(F)c(F)c3)C2)cc1F`, the values for the Fu in series [5] and in series [6] were 1.1% and 2.6%, respectively. Besides, the inhibition (at D(3) dopamine receptor [1]; at D(1B) dopamine receptor; in series [3]; at D(1A) dopamine receptor) was under 50% in each case. For the same molecule, on D(4) dopamine receptor, the IC50 is 170 nM. Also, the affinity at D(4) dopamine receptor, expressed as Ki, was 169 nM.
